Assays:
[1] = tested on: human U87 glioma cells; assay: Humanized mice implanted with human U87 glioma cells; assay type: in vivo, mouse
Text: . (FIG. 15A) Multiplexed sequential immunofluorescence images of the STING expression at baseline in humanized mouse brain implanted with U87 glioma cells and collected at endpoint. The right image represents a high magnification of the white box drawn in the left image. The white arrows highlight CD31+STING+ vessels and green arrows highlight the CD163+STING+ macrophages. […] Scale bars: 500 μm (left panel) and 50 μm (right panel). A higher magnification image of a CD163+STING+ cell is represented at the upper right quadrant of the right image (scale bar: 20 μm). […] MFI, mean fluorescence intensity; h, human; TAM, tumor-associated macrophage; Mono, monocyte; PMN, […]; MDSC, myeloid-derived suppressor cell. […] The markers were assessed via Cytek Aurora flow cytometer and the CD45+CD11b+ population was analyzed for the indicated markers. *P<0.05; ** P<0.01; *** P<0.001; **** P<0.0001 by 2-tailed Student's t test (FIGS. 15E-H).
STING expression on human and murine glioma cells was analyzed (FIG. 15A). […] To evaluate whether this treatment induces an inflammatory response directed against the CNS, the mice were evaluated daily. […]

[2] = tested on: CT-2A glioma cells; conditions: FIG. 18B right panel; control MS 28 days
Description: As such, we evaluated synergy in the CT-2A and QPP8v immunocompetent murine glioma models. […] To visualize TME features that would be reflective of response, the CT-2A model was treated on day 7 and during the therapeutic window, the activation of the STING pathway (i.e., p-IRF3) and the immune infiltration were analyzed with multiplexed SeqIF imaging.

[3] = tested on: GL261 glioma cells; conditions: FIG. 18B left panel; control MS 25 days
Description: FIG. 18A: Schema of the treatment of immunocompetent mice that underwent i.e. implantation of either GL261 or CT-2A glioma cells. […] FIG. 18C: Schema of the treatment of immunocompetent mice that underwent i.e. implantation of either CT-2A or QPP8v (subclone) glioma cells. […] FIG. 18E: Multiplexed sequential immunofluorescence images of untreated CT-2A gliomas (n=3). […] White boxes outline the portion shown at higher magnification in the right column of images. Scale bars: 500 μm (left 3 columns) and 50 μm (right column).

[4] = tested on: QPP8 glioma cells; conditions: administered on days 14, 21, and 28
Description: The total amount of immune cells was quantified based on all live CD45+ cells and specifically on CD11b+Ly6C+ expression of mono-MDSCs. […] Each dot represents an analyzed tumor or LN. FIG. 16E: Expression of immunosuppressive markers CD206 and CD163 spanning myeloid populations and as a function of treatment. FIG. 16F: Myeloid PD-L1 expression on various immune lineages in tumors and LNs.

[5] = tested on: spontaneous unresected gliomas; conditions: dogs; previously shown (ref 12); cited from earlier work
[6] = tested on: spontaneous unresected gliomas; assay: Intratumoral delivery of STING agonist in spontaneous canine high-grade glioma; assay type: in vivo, dog
Description: A single ˜5 mm-diameter burr hole craniectomy was made at entry point determined by Brainsight Neuronavigation System.
A 100 uL-Hamilton syringe secured in a calibrated holder on an x-y stage containing 50 μL of Compound C at varying concentrations
Contrast enhancing target was selected using the MRI reconstruction.
Compound of Formula C was injected at a rate of 2 uL/minute.
Compound of Formula C was administered via repeated intratumoral injections up to 20 μg in 50 uL in a large animals (canines) with spontaneous unresected gliomas.

[7] = tested on: U2940 human B-cell lymphoma, 8505C human thyroid carcinoma, and B16F10-PDL2 murine melanoma tumor cell lines; assay: ADCP reporter cell assay; assay type: cell-based; conditions: FIG. 10
Description: (§1) A dose range was tested in ADCC (FIGS. 10A, 10C, and 10E) and ADCP FIGS. 10B, 10C, and 10F) assays against U2940 human B-cell lymphoma (FIGS. 10A and 10B), 8505C human thyroid carcinoma (FIGS. 10C and 10D), and B16F10-PDL2 murine melanoma (FIGS. 10E, and 10F) tumor cell lines.

[8] = tested on: TS/A tumor; assay: TS/A mouse model of mammary carcinoma; conditions: versus control group
[9] = biological target: T1, PD-1: PD-L2 (Homo sapiens, UniProt Q9BQ51); assay: PD-1 pathway blockade reporter cell assay, PD-L2+ cells; assay type: cell-based; conditions: FIG. 9
T1 construct: expressed in transfected cells; host or cells: PD-1 expressing effector cells and PD-L2+ artificial antigen presenting cells
T1 sequence (Q9BQ51 20-273): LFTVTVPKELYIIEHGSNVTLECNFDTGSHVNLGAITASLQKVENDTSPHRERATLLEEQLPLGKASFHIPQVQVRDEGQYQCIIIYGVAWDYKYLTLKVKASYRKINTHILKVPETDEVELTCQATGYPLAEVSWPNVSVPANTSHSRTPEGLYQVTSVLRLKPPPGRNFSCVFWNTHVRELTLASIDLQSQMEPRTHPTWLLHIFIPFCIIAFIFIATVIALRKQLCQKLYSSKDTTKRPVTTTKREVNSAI
Description: (§2) A dose range of 50.000-0.015 nM was tested against PD-L1+ cells (FIG. 9A), PD-L2+ cells (FIG. 9B), and a 50:50 mixture of PD-L1+ and PD-L2+ cells (FIG. 9C). Nonlinear regression was used to generate best-fit curves in GraphPad Prism.
(§3) The ability of Ab-27907 to interrupt the PD-1 pathway through binding of the ligands PD-L1 and PD-L2 was tested in a reporter cell system. In this assay, PD-1 expressing effector cells are incubated with artificial antigen presenting cells expressing PD-L1 or PD-L2 with a T cell receptor (TCR). Without any antibodies, luminescence activity is low, as PD-1 binds its ligands, preventing TCR engagement and production of luciferase.

[10] = biological target: T2, PD-1: PD-L1 (Homo sapiens, UniProt Q9NZQ7); assay: PD-1 pathway blockade reporter cell assay, PD-L1+ cells; assay type: cell-based; conditions: FIG. 9
T2 construct: expressed in transfected cells; host or cells: PD-1 expressing effector cells and PD-L1+ artificial antigen presenting cells
Description: as §2, §3

[11] = tested on: B16F10-PDL2 tumor; assay: B16F10-PDL2 melanoma tumor-bearing mice; conditions: monotherapy, first 2 weeks
Description: Left: Mean±SEM tumor volume (mm^3) is plotted on the y-axis against days post tumor inoculation on the x-axis. Right: Kaplan Meier plots of survival.

[12] = tested on: U2940 human B-cell lymphoma, 8505C human thyroid carcinoma, and B16F10-PDL2 murine melanoma tumor cell lines; assay: ADCC reporter cell assay; assay type: cell-based; conditions: FIG. 10
Description: as §1

T2 sequence (Q9NZQ7 19-290): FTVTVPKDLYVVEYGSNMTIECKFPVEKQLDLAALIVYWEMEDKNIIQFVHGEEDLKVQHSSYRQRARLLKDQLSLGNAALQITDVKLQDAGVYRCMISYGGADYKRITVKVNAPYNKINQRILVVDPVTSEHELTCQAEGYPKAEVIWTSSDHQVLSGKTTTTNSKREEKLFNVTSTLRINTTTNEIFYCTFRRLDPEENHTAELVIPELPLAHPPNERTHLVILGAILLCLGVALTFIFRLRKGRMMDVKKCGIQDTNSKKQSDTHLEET

Nc1ncnc2c1ncn2[C@@H]1O[C@@H]2COP(O)(=S)O[C@@H]3C(O)[C@@H](COP(O)(=S)O[C@H]2[C@H]1O)O[C@H]3n1cnc2c(N)ncnc21 (stereo partly drawn) [MLRR-S2-CDA, reference compound]
survival of U87 tumor-bearing animals ([1]; both P<0.0001): significantly extended survival | median survival (MS) ([1]; treated on days 5, 10, and 15, control MS 26.5 days): 35 days

C[C@H](NC(=O)/C(C#N)=C/c1cccc(Br)n1)c1ccccc1 [WP1066, reference compound]
median survival (MS) [2]: 28 days | median survival (MS) [3]: 30 days

Nc1ncnc2c1ccn2[C@@H]1O[C@@H]2COP(=O)(S)O[C@@H]3[C@H](O)[C@@H](COP(=O)(S)O[C@H]2[C@H]1O)O[C@H]3n1cnc2c(N)ncnc21 (stereo partly drawn) [Compound 8779]
therapeutic outcome [4]: curative | median survival (MS) ([4]; control MS=103 days): undefined | radiographic regression in spontaneously arising glioblastomas [5]: induces radiographic regression

Nc1ncnc2c1ccn2[C@@H]1O[C@@H]2COP(=O)(S)O[C@@H]3[C@H](O)[C@@H](COP(=O)(S)O[C@H]2[C@H]1O)O[C@H]3n1cnc2c(N)ncnc21 (stereo partly drawn) [Compound C]
radiographic responses in spontaneously arising high-grade gliomas ([6]; dog, single injection): can produce radiographic responses | MTD ([6]; repeated intratumoral injections in 50 uL, canines with unresected gliomas): 15 to 20 µg

B1: Ab-27907: dual functioning PD-L1/PD-L2 monoclonal antibody; Fc point mutations enhance cell-mediated effector functions (antibody, V domains shown)
VH: QVQLVESGGGVIQPGRSLRLSCAASGFTFSAYLMHWVRQAPGKGLEWVAAIGYDGMNKYYADSVKGRFTISRDNSKNTLYLQMNSLRAEDTAVYYCARAGIEYSYAYTDYWGQGTLVTVSS
VL: EIVLTQSPGTLSLSPGERATLSCRASQFVYSSDLAWYQQKPGQAPRLLIYGASARAAGIPDRFSGSGSGTDFTLTISRLEPEDFAVYYCMQFGWWPPRTFGGGTKVEIK
capacity to induce ADCP [7]: robust activity | survival [8]: significant extended survival | blockade of PD-1: PD-L2 [9]: additionally blocks PD-1: PD-L2 | blockade of PD-1: PD-L1 [10]: blocks PD-1: PD-L1 as well as pembrolizumab | tumor growth [11]: significantly inhibited tumor growth | capacity to induce ADCC [12]: robust activity

— patent publication US20250170159A1, “COMPOSITIONS COMPRISING STING AGONISTS AND METHODS OF USE FOR TREATING GLIOMA” (ImmunoGenesis, Inc., priority 2023, published 2025)
